In ChEMBL document CHEMBL1201862, “PubChem BioAssay data set” (2004):
Values joined by “and” are separate entries in the source; they are usually repeats but may differ in a detail not shown here. Equal values may be shown once.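 Test compounds were applied to cells in 96-well plates for 48 hours at 5 doses. Here, GI50 denotes the concentration required for 50% inhibition of growth.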 Active and inactive are the calls of the source. Cut-off read from the data, not from the text of the source: active = GI50 up to about 1.1 µM and inactive = higher.

Tests used:
Assay in all cases: NCI-60 cell line screen, 48 h
[1] = system: HOP-18
[2] = system: M19-MEL
[3] = system: KM-20L2
[4] = system: DLD-1
[5] = system: SNB-78
[6] = system: RXF 631
[7] = system: DMS-114
[8] = system: DMS-273
[9] = system: XF498

Structure (SMILES): COC(=O)C(C(=O)C(=O)Nc1cccc(O)c1)c1nc2ccc(Cl)cc2nc1O (stereo unspecified)
- GI50 [1]: 98.9 µM (inactive)
- GI50 [2]: > 100 µM (inactive)
- GI50 [3]: > 100 µM (inactive)
- GI50 [4]: > 100 µM (inactive)
- GI50 [5]: > 100 µM (inactive)
- GI50 [6]: > 100 µM (inactive)
- GI50 [7]: > 100 µM (inactive)

Structure (SMILES): O=S(=O)(O)C1=C2Sc3ccccc3N=C2c2ccccc2C1
- GI50 [1]: 12.4 µM (inactive)
- GI50 [8]: 15.5 µM (inactive)
- GI50 [3]: 18.4 µM (inactive)
- GI50 [9]: 17.7 µM (inactive)
- GI50 [4]: 15.3 µM (inactive)
- GI50 [5]: 17.8 µM (inactive)
- GI50 [6]: 16 µM (inactive)
- GI50 [7]: 10.3 µM (inactive)

Structure (SMILES): CC(C)(C)c1nc2c(o1)C(=O)c1ccccc1C2=O
- GI50 [1]: 7.19 µM (inactive)
- GI50 [2]: 1.25 µM (inactive)
- GI50 [8]: 5.08 µM (inactive)
- GI50 [3]: 22.1 µM (inactive)
- GI50 [9]: 2.67 µM (inactive)
- GI50 [4]: 5.83 µM (inactive)
- GI50 [5]: 11.5 µM (inactive)
- GI50 [6]: 5.92 µM (inactive)
- GI50 [7]: 2.23 µM (inactive)

Structure (SMILES): COC(=O)C(=O)C(C(=O)C(=O)Nc1cccc(C(C)=O)c1)c1nc2ccccc2nc1O (stereo unspecified)
- GI50 [1]: > 100 µM (inactive)
- GI50 [2]: > 100 µM (inactive)
- GI50 [8]: > 100 µM (inactive)
- GI50 [3]: > 100 µM (inactive)
- GI50 [4]: > 100 µM (inactive)
- GI50 [6]: > 100 µM (inactive)
- GI50 [7]: > 100 µM (inactive)

Structure (SMILES): Oc1cc(-c2ccccn2)nc2ccc(Cl)cc12
- GI50 [1]: 57.5 µM (inactive)
- GI50 [2]: 24.8 µM (inactive)
- GI50 [9]: 21.5 µM (inactive)
- GI50 [4]: 41.5 µM (inactive)
- GI50 [5]: 80.7 µM (inactive)

Structure (SMILES): CC(c1ccccc1)N1CC(C)(c2ccccc2)N(O)C(c2ccccc2)C1C (stereo unspecified)
- GI50 [1]: 17.7 µM (inactive)
- GI50 [2]: > 10 µM (inactive)
- GI50 [8]: 7.93 µM (inactive)
- GI50 [3]: 4.39 µM (inactive)
- GI50 [4]: 23.7 µM (inactive)
- GI50 [5]: 15.1 µM (inactive)
- GI50 [6]: 12.6 µM (inactive)
- GI50 [7]: 5.33 µM (inactive)

Structure (SMILES): Cc1cc2c(=O)cc(-c3ccc(C(F)(F)F)cc3)oc2c(C(=O)O)c1C
- GI50 [1]: > 100 µM (inactive)
- GI50 [2]: > 100 µM (inactive)
- GI50 [8]: > 100 µM (inactive)
- GI50 [3]: > 100 µM (inactive)
- GI50 [9]: > 100 µM (inactive)
- GI50 [4]: > 100 µM (inactive)
- GI50 [5]: > 100 µM (inactive)
- GI50 [6]: > 100 µM (inactive)
- GI50 [7]: > 100 µM (inactive)

Structure (SMILES): CCN(CC)CCOC(=O)Cc1cccc2c(=O)cc(-c3ccccc3)oc12
- GI50 [1]: 78.2 µM (inactive)
- GI50 [2]: 84.5 µM (inactive)
- GI50 [8]: 361 µM (inactive)
- GI50 [3]: 95.3 µM (inactive)
- GI50 [9]: 18 µM (inactive)
- GI50 [4]: 94.8 µM (inactive)
- GI50 [5]: 84.9 µM (inactive)
- GI50 [7]: 31.8 µM (inactive)

Structure (SMILES): COC(=O)CCC1CCc2c(OC)ccc(OC)c2C1=O (stereo unspecified)
- GI50 [8]: > 100 µM (inactive)
- GI50 [3]: > 100 µM (inactive)
- GI50 [4]: > 100 µM (inactive)
- GI50 [5]: > 100 µM (inactive)
- GI50 [7]: > 100 µM (inactive)

Structure (SMILES): COC(=O)C12C3C4C1C1C2C3C41C(=O)OC(C)(C)C (stereo unspecified)
- GI50 [1]: > 100 µM (inactive)
- GI50 [2]: > 100 µM (inactive)
- GI50 [8]: > 44.1 µM (inactive)
- GI50 [3]: > 100 µM (inactive)
- GI50 [9]: > 100 µM (inactive)
- GI50 [4]: > 47.9 µM (inactive)
- GI50 [5]: > 100 µM (inactive)
- GI50 [6]: > 100 µM (inactive)
- GI50 [7]: > 44.8 µM (inactive)

Structure (SMILES): OCC(O)C(OC1OC(CO)C(O)C(O)C1O)c1nn(-c2ccc(Cl)cc2)c2nc3cc(Cl)c(Cl)cc3nc12 (stereo unspecified)
- GI50 [2]: > 100 µM (inactive)
- GI50 [3]: > 100 µM (inactive)
- GI50 [9]: > 100 µM (inactive)
- GI50 [4]: > 100 µM (inactive)
- GI50 [5]: > 100 µM (inactive)
- GI50 [7]: > 100 µM (inactive)

Structure (SMILES): N#CC12Cc3ccc4c(c3-c3cccc(c31)CCN2C(=O)c1ccccc1)OCO4 (stereo unspecified)
- GI50 [1]: > 100 µM (inactive)
- GI50 [2]: > 100 µM (inactive)
- GI50 [8]: > 100 µM (inactive)
- GI50 [3]: > 100 µM (inactive)
- GI50 [9]: 45 µM (inactive)
- GI50 [4]: > 100 µM (inactive)
- GI50 [5]: > 100 µM (inactive)
- GI50 [7]: > 100 µM (inactive)

Structure (SMILES): [N-]=[N+]=NC1C2CC3CC(C2)CC1C3 (stereo unspecified)
- GI50 [1]: > 100 µM (inactive)
- GI50 [2]: > 100 µM (inactive)
- GI50 [8]: > 100 µM (inactive)
- GI50 [3]: > 100 µM (inactive)
- GI50 [5]: > 100 µM (inactive)
- GI50 [6]: > 100 µM (inactive)
- GI50 [7]: > 100 µM (inactive)

Structure (SMILES): Clc1ccc(OCCSCCCCCCCCCCSCCOc2ccc(Cl)cc2)cc1
- GI50 [1]: > 100 µM (inactive)
- GI50 [2]: > 100 µM (inactive)
- GI50 [8]: > 100 µM (inactive)
- GI50 [3]: > 100 µM (inactive)
- GI50 [4]: > 100 µM (inactive)
- GI50 [5]: > 100 µM (inactive)
- GI50 [7]: > 100 µM (inactive)

Structure (SMILES): O=C(Nc1ccc(S(=O)(=O)N[C@@H](C(=O)O)c2ccccc2)cc1)c1ccc(F)cc1
- GI50 [1]: > 100 µM (inactive)
- GI50 [2]: > 100 µM (inactive)
- GI50 [8]: > 100 µM (inactive)
- GI50 [3]: > 100 µM (inactive)
- GI50 [9]: 67.5 µM (inactive)
- GI50 [4]: > 100 µM (inactive)

Structure (SMILES): O/N=C/c1cc2c(cc1Br)OCO2
- GI50 [1]: > 100 µM (inactive)
- GI50 [2]: > 100 µM (inactive)
- GI50 [8]: > 100 µM (inactive)
- GI50 [3]: > 100 µM (inactive)
- GI50 [4]: > 100 µM (inactive)
- GI50 [5]: > 100 µM (inactive)
- GI50 [6]: > 100 µM (inactive)

Structure (SMILES): COc1cc([C@@H]2c3cc4c(cc3[C@@H](NC(=O)c3cccc([N+](=O)[O-])c3)C3COC(=O)[C@@H]32)OCO4)cc(OC)c1O (stereo partly specified)
- GI50 [2]: 2.55 µM (inactive)
- GI50 [8]: 0.149 µM (active)
- GI50 [3]: 2.82 µM (inactive)
- GI50 [4]: 3.33 µM (inactive)
- GI50 [5]: 4.73 µM (inactive)
- GI50 [6]: 1.31 µM (inactive)
- GI50 [7]: 0.548 µM (active)

Structure (SMILES): Cc1cccc(C)c1NC(=O)C(=O)Cc1nc2ccccc2s1
- GI50 [2]: > 100 µM (inactive)
- GI50 [8]: > 100 µM (inactive)
- GI50 [3]: > 100 µM (inactive)
- GI50 [9]: > 100 µM (inactive)
- GI50 [4]: > 100 µM (inactive)
- GI50 [5]: > 100 µM (inactive)
- GI50 [7]: > 100 µM (inactive)

Structure (SMILES): CSC1CC2C(CC1(C)O)C2(C)C (stereo unspecified)
- GI50 [2]: > 100 µM (inactive)
- GI50 [8]: > 100 µM (inactive) and 69.3 µM (inactive)
- GI50 [3]: > 100 µM (inactive) and 74.8 µM (inactive)
- GI50 [4]: > 100 µM (inactive)
- GI50 [5]: > 100 µM (inactive)

Structure (SMILES): CN1CCCC2[C@@H]3CCC4=C(O)C(=O)CC[C@]4(C)C3CC[C@@]21C (stereo partly specified)
- GI50 [1]: > 100 µM (inactive)
- GI50 [8]: > 100 µM (inactive)
- GI50 [3]: > 100 µM (inactive)
- GI50 [9]: > 100 µM (inactive)
- GI50 [6]: > 100 µM (inactive)
- GI50 [7]: > 100 µM (inactive)
